According to patent US20220386606A1, “SPECIFICALLY SUBSTITUTED 3-PHENYL-5-SPIROCYCLOPENTYL-3-PYRROLIN-2-ONES AND THEIR USE AS HERBICIDES” (Bayer Aktiengesellschaft, priority 2019, published 2022):

Key:
ALOMY [1] = experiment: Pre-emergence herbicidal action against ALOMY; format: in vivo, Alopecurus myosuroides; details: 320 g/ha, scored visually after 3 weeks vs untreated controls
Method in brief: (§1)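 Percent activity (0% = like control, 100% = dead) read visually after a 3-week greenhouse period. Application: aqueous WP or EC formulations sprayed onto soil covering sown seeds, water rate 600 to 800 L/ha with 0.2% wetting agent.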

VIOTR = experiment: Pre-emergence herbicidal action against VIOTR; format: in vivo, Viola tricolor; details: 320 g/ha
Method in brief: as §1

LOLRI [2] = experiment: Pre-emergence herbicidal action against LOLRI (Table 8, titled post-emergence at 320 g/ha); format: in vivo, Lolium rigidum; details: table stands in the pre-emergence section
Method in brief: as §1

DIGSA [3] = experiment: Post-emergence herbicidal action against DIGSA; format: in vivo, Digitaria sanguinalis; details: 80 g/ha, visual assessment about 3 weeks after treatment vs untreated controls
Method in brief: (§2)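 Weeds were grown in sandy loam in a greenhouse and treated at the one-leaf stage, 2 to 3 weeks after sowing. WP or EC formulations were sprayed onto green parts at 600 to 800 l/ha water with 0.2% wetting agent. Visual % action versus untreated controls was scored after about 3 weeks.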

LOLRI [4] = experiment: Post-emergence herbicidal action against LOLRI; format: in vivo, Lolium rigidum; details: 80 g/ha, visual assessment about 3 weeks after treatment vs untreated controls
Method in brief: as §2

SETVI [5] = experiment: Post-emergence herbicidal action against SETVI; format: in vivo, Setaria viridis; details: 80 g/ha, visual assessment about 3 weeks after treatment vs untreated controls
Method in brief: as §2

ALOMY [6] = experiment: Post-emergence herbicidal action against ALOMY; format: in vivo, Alopecurus myosuroides; details: 80 g/ha, visual assessment after about 3 weeks
Method in brief: as §2

AVEFA [7] = experiment: Post-emergence herbicidal action against AVEFA; format: in vivo, Avena fatua; details: 80 g/ha, visual assessment after about 3 weeks
Method in brief: as §2

ECHCG [8] = experiment: Post-emergence herbicidal action against ECHCG; format: in vivo, Echinochloa crus-galli; details: 80 g/ha, visual assessment about 3 weeks after treatment vs untreated controls
Method in brief: as §2

DIGSA [9] = experiment: Pre-emergence herbicidal action against DIGSA; format: in vivo, Digitaria sanguinalis; details: 320 g/ha, scored visually after 3 weeks vs untreated controls
Method in brief: as §1

MATIN = experiment: Pre-emergence herbicidal action against MATIN; format: in vivo; details: 320 g/ha
Description: Seeds of monocotyledonous and dicotyledonous weed plants and crop plants are laid out in sandy loam soil in wood-fiber pots and covered with soil. The compounds of the invention, formulated in the form of wettable powders (WP) or as emulsion concentrates (EC), are then applied to the surface of the covering soil as aqueous suspension or emulsion at a water application rate equating to 600 to 800 L/ha with addition of 0.2% wetting agent.
After the treatment, the pots are placed in a greenhouse and kept under good growth conditions for the trial plants. The damage to the test plants is scored visually after a test period of 3 weeks by comparison with untreated controls (herbicidal activity in percent (%): 100% activity=the plants have died, 0% activity=like control plants).

SETVI [10] = experiment: Pre-emergence herbicidal action against SETVI; format: in vivo, Setaria viridis; details: 320 g/ha, scored visually after 3 weeks vs untreated controls
Method in brief: as §1

ECHCG [11] = experiment: Pre-emergence herbicidal action against ECHCG; format: in vivo, Echinochloa crus-galli; details: 320 g/ha, scored visually after 3 weeks vs untreated controls
Method in brief: as §1

AMARE = experiment: Pre-emergence herbicidal action against AMARE; format: in vivo, Amaranthus retroflexus; details: 320 g/ha
Method in brief: as §1

AVEFA [12] = experiment: Pre-emergence herbicidal action against AVEFA; format: in vivo, Avena fatua; details: 320 g/ha, scored visually after 3 weeks vs untreated controls
Method in brief: as §1

| Structure (SMILES) | Pre-emergence action against ALOMY in % (ALOMY [1]) [%] | Pre-emergence action against VIOTR in % (VIOTR) [%] | Pre-emergence herbicidal action against LOLRI in % (LOLRI [2]) [%] | Post-emergence action against DIGSA in % (DIGSA [3]) [%] | Post-emergence action against LOLRI in % (LOLRI [4]) [%] | Post-emergence action against SETVI in % (SETVI [5]) [%] | Post-emergence action against ALOMY in % (ALOMY [6]) [%] | Post-emergence action against AVEFA in % (AVEFA [7]) [%] | Post-emergence action against ECHCG in % (ECHCG [8]) [%] | Pre-emergence action against DIGSA in % (DIGSA [9]) [%] | Pre-emergence action against MATIN in % (MATIN) [%] | Pre-emergence action against SETVI in % (SETVI [10]) [%] | Pre-emergence action against ECHCG in % (ECHCG [11]) [%] | Pre-emergence action against AMARE in % (AMARE) [%] | Pre-emergence action against AVEFA in % (AVEFA [12]) [%] |
| --- | --- | --- | --- | --- | --- | --- | --- | --- | --- | --- | --- | --- | --- | --- | --- |
| CC#Cc1cc(C)c(C2=C(O)C3(CCC(COCCC)C3)NC2=O)c(OC)c1 (centres unmarked) [Example I-59] | 100 | 100 | 100 | 100 | 90 | 100 | 100 | 90 | 100 | 100 | 80 | 100 | 100 | 100 | – |
| C=CCOCC1CCC2(C1)NC(=O)C(c1c(C)cc(C#CC)cc1Br)=C2O (centres unmarked) [Example I-67] | 100 | 100 | 100 | 90 | 90 | 90 | 100 | – | 90 | 100 | 80 | 100 | 100 | – | 80 |
| C#CCOCC1CCC2(C1)NC(=O)C(c1c(F)cc(C#CC)cc1OC)=C2O (centres unmarked) [Example I-75] | 90 | – | 100 | 90 | 90 | 100 | 90 | 90 | 100 | 100 | 90 | 100 | 90 | 80 | 100 |
| C#CCOCC1CCC2(C1)NC(=O)C(c1c(C)cc(C#CC)cc1OC)=C2O (centres unmarked) [Example I-77] | 100 | – | 100 | 90 | 90 | 100 | 100 | 90 | 100 | 100 | 80 | 100 | 100 | 100 | 100 |
| CC#Cc1cc(F)c(C2=C(OC(=O)OCC)C3(CCC(COCCC)C3)NC2=O)c(OC)c1 (centres unmarked) [Example P-84] | 100 | 80 | 100 | 90 | 80 | 100 | – | 80 | 100 | 100 | 80 | 100 | 100 | – | 80 |
